Experimental data published in patent publication US8952024B2, “Herbicidal pyrimidone derivatives” (E I du Pont de Nemours and Company, priority 2009, dated 2015).

Columns and labels:
Assay in all cases: Test B pre-/postemergence plant response
Type in all cases: in vivo
[1] = system: Italian ryegrass (Lolium multiflorum)
How it was run: (§1)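 Greenhouse herbicide screen. Pre- and postemergence (1- to 4-leaf) spray of compound in solvent/surfactant mixture; loam–sand soil for pre, peat/vermiculite medium for post. Visual control rating 0–100 at 13 to 15 days after treatment.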

[2] = system: bermudagrass (Cynodon dactylon)
How it was run: as §1

[3] = system: cocklebur (Xanthium strumarium)
How it was run: as §1

[4] = system: downy bromegrass (Bromus tectorum)
How it was run: as §1

kochia (Kochia scoparia) = system: kochia (Kochia scoparia)
How it was run: as §1

[5] = system: large crabgrass (Digitaria sanguinalis)
How it was run: as §1

[6] = system: morningglory (Ipomoea coccinea)
How it was run: as §1

soybean (Glycine max) = system: soybean (Glycine max)
How it was run: as §1

[7] = system: velvetleaf (Abutilon theophrasti)
How it was run: as §1

[8] = system: wheat (Triticum aestivum)
How it was run: as §1

[9] = system: woolly cupgrass (Eriochloa villosa)
How it was run: as §1

[10] = system: yellow nutsedge (Cyperus esculentus)
How it was run: as §1

[11] = 31 g ai/ha, postemergence, scale 0 to 100, 0 is no effect, 100 is complete control
[12] = Postemergence, 62 g ai/ha, scale 0 (no effect) to 100 (complete control), 13 to 15 days
[13] = Postemergence, 125 g ai/ha, visual rating after 13 to 15 days, scale 0 (no effect) to 100 (complete control)
[14] = Postemergence, 250 g ai/ha, scale 0 to 100 (0 no effect, 100 complete control)
[15] = Preemergence, 31 g ai/ha, scale 0 to 100 (0 no effect, 100 complete control)
[16] = Preemergence, 62 g ai/ha, scale 0 to 100 (0 no effect, 100 complete control)
[17] = Preemergence, 125 g ai/ha, scale 0 to 100, 0 no effect, 100 complete control
[18] = 250 g ai/ha, Preemergence, 0 to 100 scale

CCCCc1ncc(C(=O)C2=C(O)CCCC2=O)c(=O)n1-c1cccc(C)c1 [Compound 63]
Plant response rating, Ryegrass, Italian [1, 11]: 0
Plant response rating, Ryegrass, Italian [1, 12]: 0
Plant response rating, Ryegrass, Italian [1, 13]: 0
Plant response rating, Ryegrass, Italian [1, 14]: 10
Plant response rating, Ryegrass, Italian [1, 15]: 0
Plant response rating, Ryegrass, Italian [1, 16]: 0
Plant response rating, Ryegrass, Italian [1, 17]: 0
Plant response rating, Bermudagrass [2, 18]: 98
Plant response rating, Bermudagrass [2, 12]: 85
Plant response rating, Bermudagrass [2, 13]: 85
Plant response rating, Bermudagrass [2, 14]: 95
Plant response rating, Bermudagrass [2, 15]: 75
Plant response rating, Bermudagrass [2, 16]: 98
Plant response rating, Bermudagrass [2, 17]: 98
Plant response rating, Cocklebur [3, 11]: 65
Plant response rating, Cocklebur [3, 18]: 10
Plant response rating, Cocklebur [3, 12]: 80
Plant response rating, Cocklebur [3, 13]: 90
Plant response rating, Cocklebur [3, 14]: 95
Plant response rating, Cocklebur [3, 15]: 0
Plant response rating, Cocklebur [3, 16]: 0
Plant response rating, Cocklebur [3, 17]: 0
Plant response rating, Bromegrass, Downy [4, 11]: 10
Plant response rating, Bromegrass, Downy [4, 18]: 0
Plant response rating, Bromegrass, Downy [4, 12]: 20
Plant response rating, Bromegrass, Downy [4, 13]: 20
Plant response rating, Bromegrass, Downy [4, 14]: 40
Plant response rating, Bromegrass, Downy [4, 15]: 0
Plant response rating, Bromegrass, Downy [4, 16]: 0
Plant response rating, Bromegrass, Downy [4, 17]: 0
Plant response rating, Kochia (kochia (Kochia scoparia); [11]): 10
Plant response rating, Kochia (kochia (Kochia scoparia); [18]): 100
Plant response rating, Kochia (kochia (Kochia scoparia); [12]): 25
Plant response rating, Kochia (kochia (Kochia scoparia); [13]): 25
Plant response rating, Kochia (kochia (Kochia scoparia); [14]): 65
Plant response rating, Kochia (kochia (Kochia scoparia); [15]): 0
Plant response rating, Kochia (kochia (Kochia scoparia); [16]): 100
Plant response rating, Kochia (kochia (Kochia scoparia); [17]): 100
Plant response rating, Crabgrass, Large [5, 11]: 70
Plant response rating, Crabgrass, Large [5, 18]: 100
Plant response rating, Crabgrass, Large [5, 12]: 75
Plant response rating, Crabgrass, Large [5, 13]: 80
Plant response rating, Crabgrass, Large [5, 14]: 90
Plant response rating, Crabgrass, Large [5, 15]: 50
Plant response rating, Crabgrass, Large [5, 16]: 85
Plant response rating, Crabgrass, Large [5, 17]: 100
Plant response rating, Morningglory [6, 12]: 70
Plant response rating, Morningglory [6, 13]: 75
Plant response rating, Morningglory [6, 14]: 75
Plant response rating, Morningglory [6, 15]: 0
Plant response rating, Morningglory [6, 16]: 0
Plant response rating, Morningglory [6, 17]: 0
Plant response rating, Soybean (soybean (Glycine max); [11]): 75
Plant response rating, Soybean (soybean (Glycine max); [12]): 75
Plant response rating, Soybean (soybean (Glycine max); [13]): 85
Plant response rating, Soybean (soybean (Glycine max); [14]): 85
Plant response rating, Soybean (soybean (Glycine max); [15]): 0
Plant response rating, Soybean (soybean (Glycine max); [16]): 0
Plant response rating, Soybean (soybean (Glycine max); [17]): 5
Plant response rating, Velvetleaf [7, 11]: 95
Plant response rating, Velvetleaf [7, 12]: 98
Plant response rating, Velvetleaf [7, 13]: 98
Plant response rating, Velvetleaf [7, 14]: 98
Plant response rating, Velvetleaf [7, 15]: 75
Plant response rating, Velvetleaf [7, 16]: 90
Plant response rating, Velvetleaf [7, 17]: 100
Plant response rating, Wheat [8, 11]: 0
Plant response rating, Wheat [8, 12]: 0
Plant response rating, Wheat [8, 13]: 0
Plant response rating, Wheat [8, 14]: 10
Plant response rating, Wheat [8, 15]: 0
Plant response rating, Wheat [8, 16]: 0
Plant response rating, Wheat [8, 17]: 0
Plant response rating, Cupgrass, Woolly [9, 11]: 50
Plant response rating, Cupgrass, Woolly [9, 18]: 10
Plant response rating, Cupgrass, Woolly [9, 12]: 60
Plant response rating, Cupgrass, Woolly [9, 13]: 65
Plant response rating, Cupgrass, Woolly [9, 14]: 65
Plant response rating, Cupgrass, Woolly [9, 15]: 0
Plant response rating, Cupgrass, Woolly [9, 16]: 0
Plant response rating, Cupgrass, Woolly [9, 17]: 0
Plant response rating, Nutsedge, Yellow [10, 11]: 20
Plant response rating, Nutsedge, Yellow [10, 12]: 20
Plant response rating, Nutsedge, Yellow [10, 13]: 50
Plant response rating, Nutsedge, Yellow [10, 14]: 60
Plant response rating, Nutsedge, Yellow [10, 15]: 10
Plant response rating, Nutsedge, Yellow [10, 16]: 15
Plant response rating, Nutsedge, Yellow [10, 17]: 25

O=C1CCCC(O)=C1C(=O)c1cnc(-c2cccc(Cl)c2)n(-c2ccc(Cl)cc2)c1=O [Compound 64]
Plant response rating, Ryegrass, Italian [1, 11]: 0
Plant response rating, Ryegrass, Italian [1, 12]: 0
Plant response rating, Ryegrass, Italian [1, 13]: 0
Plant response rating, Ryegrass, Italian [1, 14]: 30
Plant response rating, Ryegrass, Italian [1, 15]: 0
Plant response rating, Ryegrass, Italian [1, 16]: 0
Plant response rating, Ryegrass, Italian [1, 17]: 0
Plant response rating, Bermudagrass [2, 11]: 95
Plant response rating, Bermudagrass [2, 18]: 98
Plant response rating, Bermudagrass [2, 12]: 95
Plant response rating, Bermudagrass [2, 13]: 98
Plant response rating, Bermudagrass [2, 14]: 98
Plant response rating, Bermudagrass [2, 15]: 50
Plant response rating, Bermudagrass [2, 16]: 85
Plant response rating, Bermudagrass [2, 17]: 98
Plant response rating, Cocklebur [3, 11]: 90
Plant response rating, Cocklebur [3, 18]: 70
Plant response rating, Cocklebur [3, 12]: 95
Plant response rating, Cocklebur [3, 13]: 95
Plant response rating, Cocklebur [3, 14]: 95
Plant response rating, Cocklebur [3, 15]: 0
Plant response rating, Cocklebur [3, 16]: 0
Plant response rating, Cocklebur [3, 17]: 10
Plant response rating, Bromegrass, Downy [4, 11]: 25
Plant response rating, Bromegrass, Downy [4, 18]: 0
Plant response rating, Bromegrass, Downy [4, 12]: 45
Plant response rating, Bromegrass, Downy [4, 13]: 60
Plant response rating, Bromegrass, Downy [4, 14]: 85
Plant response rating, Bromegrass, Downy [4, 15]: 0
Plant response rating, Bromegrass, Downy [4, 16]: 0
Plant response rating, Bromegrass, Downy [4, 17]: 0
Plant response rating, Kochia (kochia (Kochia scoparia); [11]): 50
Plant response rating, Kochia (kochia (Kochia scoparia); [18]): 95
Plant response rating, Kochia (kochia (Kochia scoparia); [12]): 55
Plant response rating, Kochia (kochia (Kochia scoparia); [13]): 80
Plant response rating, Kochia (kochia (Kochia scoparia); [14]): 80
Plant response rating, Kochia (kochia (Kochia scoparia); [15]): 0
Plant response rating, Kochia (kochia (Kochia scoparia); [16]): 0
Plant response rating, Kochia (kochia (Kochia scoparia); [17]): 45
Plant response rating, Crabgrass, Large [5, 11]: 85
Plant response rating, Crabgrass, Large [5, 18]: 98
Plant response rating, Crabgrass, Large [5, 12]: 90
Plant response rating, Crabgrass, Large [5, 13]: 98
Plant response rating, Crabgrass, Large [5, 14]: 98
Plant response rating, Crabgrass, Large [5, 15]: 50
Plant response rating, Crabgrass, Large [5, 16]: 75
Plant response rating, Crabgrass, Large [5, 17]: 98
Plant response rating, Morningglory [6, 11]: 80
Plant response rating, Morningglory [6, 12]: 80
Plant response rating, Morningglory [6, 13]: 85
Plant response rating, Morningglory [6, 14]: 90
Plant response rating, Morningglory [6, 15]: 0
Plant response rating, Morningglory [6, 16]: 0
Plant response rating, Morningglory [6, 17]: 0
Plant response rating, Soybean (soybean (Glycine max); [11]): 85
Plant response rating, Soybean (soybean (Glycine max); [12]): 98
Plant response rating, Soybean (soybean (Glycine max); [13]): 98
Plant response rating, Soybean (soybean (Glycine max); [14]): 98
Plant response rating, Velvetleaf [7, 11]: 85
Plant response rating, Velvetleaf [7, 12]: 98
Plant response rating, Velvetleaf [7, 13]: 98
Plant response rating, Velvetleaf [7, 14]: 100
Plant response rating, Velvetleaf [7, 15]: 65
Plant response rating, Velvetleaf [7, 16]: 75
Plant response rating, Velvetleaf [7, 17]: 95
Plant response rating, Wheat [8, 11]: 10
Plant response rating, Wheat [8, 12]: 15
Plant response rating, Wheat [8, 13]: 30
Plant response rating, Wheat [8, 14]: 55
Plant response rating, Wheat [8, 15]: 0
Plant response rating, Wheat [8, 16]: 0
Plant response rating, Wheat [8, 17]: 0
Plant response rating, Cupgrass, Woolly [9, 11]: 75
Plant response rating, Cupgrass, Woolly [9, 18]: 10
Plant response rating, Cupgrass, Woolly [9, 12]: 95
Plant response rating, Cupgrass, Woolly [9, 13]: 98
Plant response rating, Cupgrass, Woolly [9, 14]: 98
Plant response rating, Cupgrass, Woolly [9, 15]: 0
Plant response rating, Cupgrass, Woolly [9, 16]: 0
Plant response rating, Cupgrass, Woolly [9, 17]: 0
Plant response rating, Nutsedge, Yellow [10, 11]: 0
Plant response rating, Nutsedge, Yellow [10, 12]: 10
Plant response rating, Nutsedge, Yellow [10, 13]: 10
Plant response rating, Nutsedge, Yellow [10, 14]: 25
Plant response rating, Nutsedge, Yellow [10, 15]: 0
Plant response rating, Nutsedge, Yellow [10, 16]: 0
Plant response rating, Nutsedge, Yellow [10, 17]: 0
